Measured values from ChEMBL document CHEMBL3272271, “Folate antagonists. 13. 2,4-Diamino-6-](alpha,alpha,alpha-trifluoro-m-tolyl)thio]quinazoline and related 2,4-diamino-6-[(phenyl- and naphthyl)thio]quinazolines, a unique class of antimetabolites with extraordinary antimalarial and antibacterial effects” (J Med Chem, 1978).
Converted amounts (≈) assume the structure as drawn. The source made the active and inactive calls. The rule behind the calls is not given here.

Legend:
Plasmodium gallinaceum [1] = assay: Antimalarial activity against trophozoite-induced Plasmodium gallinaceum infected in white leghorn chicken assessed as disease cure from parasite infection at 320 mg/kg, sc administered 72 hrs after infection; assay type: functional, organism-based; parameters: dose 320 mg/kg
Plasmodium gallinaceum [2] = assay: Antimalarial activity against trophozoite-induced Plasmodium gallinaceum infected in white leghorn chicken assessed as disease cure from parasite infection at 160 mg/kg, sc administered 72 hrs after infection; assay type: functional, organism-based; parameters: dose 160 mg/kg
Plasmodium falciparum [3] = assay: Antimalarial activity against chloroquine-susceptible, pyrimethamine-resistant Plasmodium falciparum Malayan Camp infected in Aotus trivirgatus owl monkey model assessed as cure from parasite infection at >2.5 mg/kg, po qd for 7 days relative to control; assay type: functional
Plasmodium falciparum [4] = assay: Antimalarial activity against pyrimethamine-sensitive Plasmodium falciparum Vietnam Oak Knoll infected in Aotus trivirgatus owl monkey model assessed as cure from parasite infection at 0.098 to 1.56 mg/kg, po qd for 7 days relative to control; assay type: functional; conditions: dose mg/kg 0.098-1.56
Plasmodium falciparum [5] = assay: Antimalarial activity against pyrimethamine-sensitive Plasmodium falciparum Vietnam Oak Knoll infected in Aotus trivirgatus owl monkey model assessed as cure from parasite infection at 0.6 mg/kg, po qd for 7 days relative to control; assay type: functional
Enterococcus faecalis = assay: Antibacterial activity against Streptococcus faecalis MGH-2 by gradient plate test; assay type: functional
Staphylococcus aureus [6] = assay: Antibacterial activity against Staphylococcus aureus UC-96 by gradient plate test; assay type: functional
Staphylococcus aureus [7] = assay: Antibacterial activity against drug-resistant Staphylococcus aureus S18713 by gradient plate test; assay type: functional
Pseudomonas aeruginosa = assay: Antibacterial activity against Pseudomonas aeruginosa 28 by gradient plate test; assay type: functional
Escherichia coli = assay: Antibacterial activity against Escherichia coli Vogel by gradient plate test; assay type: functional
Shigella sonnei = assay: Antibacterial activity against Shigella sonnei C-10 by gradient plate test; assay type: functional
Plasmodium gallinaceum [8] = assay: Antimalarial activity against sporozoite-induced Plasmodium gallinaceum infected in white leghorn chicken assessed as disease cure from parasite infection at 320 mg/kg, sc administered 72 hrs after infection; assay type: functional, organism-based; parameters: dose 320 mg/kg
Plasmodium gallinaceum [9] = assay: Antimalarial activity against sporozoite-induced Plasmodium gallinaceum infected in white leghorn chicken assessed as disease cure from parasite infection at 160 mg/kg, sc administered 72 hrs after infection; assay type: functional, organism-based; parameters: dose 160 mg/kg
Plasmodium gallinaceum [10] = assay: Antimalarial activity against sporozoite-induced Plasmodium gallinaceum infected in white leghorn chicken assessed as disease cure from parasite infection at 80 mg/kg, sc administered 72 hrs after infection; assay type: functional, organism-based; parameters: dose 80 mg/kg
Plasmodium berghei [11] = assay: Antimalarial activity against Plasmodium berghei infected in mouse assessed as increase in mean survival days of host at 10 mg/kg, sc administered 72 hrs after infection relative to control; assay type: functional; conditions: route subcutaneous
Plasmodium berghei [12] = assay: Antimalarial activity against chloroquine-resistant Plasmodium berghei assessed as drug resistance; assay type: functional, organism-based
Plasmodium berghei [13] = assay: Antimalarial activity against cycloguanil-resistant Plasmodium berghei assessed as drug resistance; assay type: functional, organism-based
Plasmodium falciparum [14] = assay: Antimalarial activity against chloroquine-susceptible, pyrimethamine-resistant Plasmodium falciparum Malayan Camp infected in Aotus trivirgatus owl monkey model assessed as cure from parasite infection at 0.39 to 5 mg/kg, po qd for 7 days relative to control; assay type: functional; conditions: dose mg/kg 0.39-5
Plasmodium berghei [15] = assay: Antimalarial activity against Plasmodium berghei infected in mouse assessed as increase in mean survival days of host at 5 mg/kg, sc administered 72 hrs after infection relative to control; assay type: functional; conditions: route subcutaneous
Plasmodium berghei [16] = assay: Antimalarial activity against Plasmodium berghei infected in mouse assessed as increase in mean survival days of host at 2.5 mg/kg, sc administered 72 hrs after infection relative to control; assay type: functional; conditions: route subcutaneous
Plasmodium berghei [17] = assay: Antimalarial activity against Plasmodium berghei infected in mouse assessed as increase in mean survival days of host at 1.25 mg/kg, sc administered 72 hrs after infection relative to control; assay type: functional; conditions: route subcutaneous
Plasmodium berghei [18] = assay: Antimalarial activity against Plasmodium berghei infected in mouse assessed as disease cure from parasite infection at 640 mg/kg, sc administered 72 hrs after infection; assay type: functional, organism-based; parameters: dose 640 mg/kg
Plasmodium berghei [19] = assay: Antimalarial activity against Plasmodium berghei infected in mouse assessed as disease cure from parasite infection at 320 mg/kg, sc administered 72 hrs after infection; assay type: functional, organism-based; parameters: dose 320 mg/kg
Plasmodium berghei [20] = assay: Antimalarial activity against Plasmodium berghei infected in mouse assessed as disease cure from parasite infection at 160 mg/kg, sc administered 72 hrs after infection; assay type: functional, organism-based; parameters: dose 160 mg/kg
Plasmodium berghei [21] = assay: Antimalarial activity against Plasmodium berghei infected in mouse assessed as disease cure from parasite infection at 80 mg/kg, sc administered 72 hrs after infection; assay type: functional, organism-based; parameters: dose 80 mg/kg
Plasmodium berghei [22] = assay: Antimalarial activity against Plasmodium berghei infected in mouse assessed as disease cure from parasite infection at 40 mg/kg, sc administered 72 hrs after infection; assay type: functional, organism-based; parameters: dose 40 mg/kg
Plasmodium berghei [23] = assay: Antimalarial activity against Plasmodium berghei infected in mouse assessed as disease cure from parasite infection at 20 mg/kg, sc administered 72 hrs after infection; assay type: functional, organism-based; parameters: dose 20 mg/kg
Plasmodium berghei [24] = assay: Antimalarial activity against trophozoite-induced Plasmodium berghei infected in mouse assessed as daily dose required to suppression of 90% parasite infection administered with diet for 6 days; assay type: functional
Plasmodium berghei [25] = assay: Ratio of quinine hydrochloride SD90 to compound SD90 for trophozoite-induced Plasmodium berghei infected in mouse assessed as daily dose required to suppression of 90% parasite infection administered with diet for 6 days; assay type: functional
Plasmodium gallinaceum [26] = assay: Antimalarial activity against trophozoite-induced Plasmodium gallinaceum infected in white leghorn chicken assessed as increase in mean survival days of host at 320 mg/kg, sc administered 72 hrs after infection relative to control; assay type: functional; conditions: route subcutaneous
Plasmodium gallinaceum [27] = assay: Antimalarial activity against trophozoite-induced Plasmodium gallinaceum infected in white leghorn chicken assessed as increase in mean survival days of host at 160 mg/kg, sc administered 72 hrs after infection relative to control; assay type: functional; conditions: route subcutaneous
Plasmodium gallinaceum [28] = assay: Antimalarial activity against trophozoite-induced Plasmodium gallinaceum infected in white leghorn chicken assessed as increase in mean survival days of host at 80 mg/kg, sc administered 72 hrs after infection relative to control; assay type: functional; conditions: route subcutaneous
Plasmodium gallinaceum [29] = assay: Antimalarial activity against trophozoite-induced Plasmodium gallinaceum infected in white leghorn chicken assessed as increase in mean survival days of host at 40 mg/kg, sc administered 72 hrs after infection relative to control; assay type: functional; conditions: route subcutaneous
Plasmodium gallinaceum [30] = assay: Antimalarial activity against trophozoite-induced Plasmodium gallinaceum infected in white leghorn chicken assessed as increase in mean survival days of host at 20 mg/kg, sc administered 72 hrs after infection relative to control; assay type: functional; conditions: route subcutaneous
Plasmodium gallinaceum [31] = assay: Antimalarial activity against trophozoite-induced Plasmodium gallinaceum infected in white leghorn chicken assessed as increase in mean survival days of host at 10 mg/kg, sc administered 72 hrs after infection relative to control; assay type: functional; conditions: route subcutaneous

## Nc1nc(N)c2cc(Sc3ccc4ccccc4c3)ccc2n1
Plasmodium gallinaceum [1]
  Activity: Active
Plasmodium gallinaceum [2]
  Activity: Active
Plasmodium falciparum [3]
  Activity: >50%
Plasmodium falciparum [4]
  Activity: >50%
Plasmodium falciparum [5]
  Activity: >50%
Enterococcus faecalis
  MIC: < 0.25 µg/mL
Staphylococcus aureus [6]
  MIC: < 0.25 µg/mL
Staphylococcus aureus [7]
  MIC: < 0.25 µg/mL
Pseudomonas aeruginosa
  MIC: > 25 µg/mL
Escherichia coli
  MIC: < 0.25 µg/mL
Shigella sonnei
  MIC: 2.5 µg/mL (≈ 7.85 µM)
Plasmodium gallinaceum [8]
  Activity: Active
Plasmodium gallinaceum [9]
  Activity: Active
Plasmodium gallinaceum [10]
  Activity: Active
Plasmodium berghei [11]
  MST: 11.3 days
Plasmodium berghei [12]
  Activity: inactive
Plasmodium berghei [13]
  Activity: Active
Plasmodium falciparum [14]
  Activity: >50%
Plasmodium berghei [15]
  MST: 6.5 days
Plasmodium berghei [16]
  MST: 5.3 days
Plasmodium berghei [17]
  MST: 2.9 days
Plasmodium berghei [18]
  Activity: Active
Plasmodium berghei [19]
  Activity: Active
Plasmodium berghei [20]
  Activity: Active
Plasmodium berghei [21]
  Activity: Active
Plasmodium berghei [22]
  Activity: Active
Plasmodium berghei [23]
  Activity: Active
Plasmodium berghei [24]
  SD90: 0.08 mg/kg/day
Plasmodium berghei [25]
  Ratio: 880
Plasmodium gallinaceum [26]
  MST: 16 days
Plasmodium gallinaceum [27]
  MST: 15 days
Plasmodium gallinaceum [28]
  MST: 16.2 days
Plasmodium gallinaceum [29]
  MST: 12.4 days
Plasmodium gallinaceum [30]
  MST: 7.8 days
Plasmodium gallinaceum [31]
  MST: 6.2 days
